The values below are quoted from earlier work in paper PMC10949855 (Journal of veterinary pharmacology and therapeutics, 2022).

Molecules are shown by their SMILES.

The conditions of this data set: after SC and IM administration at 0.25 mg/kg, dogs; ref Pfeffer et al., 1980; cited from earlier work.

Take `Oc1ccc2c(c1)[C@@]13CCCC[C@@]1(O)[C@@H](C2)N(CC1CCC1)CC3` [butorphanol]: the CMAX range is 25 to 33 ng/mL and the terminal half-life is 1.5 to 1.7 h.
